Results taken from ChEMBL document CHEMBL1201862, “PubChem BioAssay data set” (2004).
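Values below derive from 48-hour exposures of cells grown in 96-well plates, with endpoints linearly interpolated between the two concentrations bracketing the appropriate inhibition level. Here, GI50 denotes the concentration required for 50% inhibition of growth.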 Active and inactive are the calls of the source. Cut-off read from the data, not from the text of the source: active = GI50 up to about 1.1 µM and inactive = higher.

What was measured:
Experiment in all cases: NCI tumour cell line growth inhibition, 48 h
[1] = tested on: HOP-92
[2] = tested on: HL-60
[3] = tested on: EKVX
[4] = tested on: HT-29
[5] = tested on: XF498
[6] = tested on: UACC-257
[7] = tested on: M19-MEL
[8] = tested on: U-251
[9] = tested on: UACC-62
[10] = tested on: NCI-H226
[11] = tested on: HCT-15
[12] = tested on: IGROV-1
[13] = tested on: SW-620
[14] = tested on: K562
[15] = tested on: SK-MEL-5
[16] = tested on: KM12
[17] = tested on: SF-295
[18] = tested on: RXF 393
[19] = tested on: SN12C
[20] = tested on: KM-20L2
[21] = tested on: SK-MEL-28
[22] = tested on: SR
[23] = tested on: DLD-1
[24] = tested on: HCT-116
[25] = tested on: SNB-75
[26] = tested on: RPMI-8226
[27] = tested on: DMS-273
[28] = tested on: SF-268
[29] = tested on: HOP-62
[30] = tested on: OVCAR-5
[31] = tested on: M14
[32] = tested on: NCI-H460
[33] = tested on: SK-MEL-2
[34] = tested on: ACHN
[35] = tested on: MOLT-4
[36] = tested on: LXFL 529
[37] = tested on: OVCAR-8
[38] = tested on: CCRF-CEM
[39] = tested on: TK-10
[40] = tested on: SK-OV-3
[41] = tested on: HCC 2998
[42] = tested on: OVCAR-3
[43] = tested on: DMS-114
[44] = tested on: Malme-3M
[45] = tested on: LOX IMVI
[46] = tested on: COLO 205
[47] = tested on: NCI-H23
[48] = tested on: UO-31

COc1ccc(Nc2cnc3cc(N)ccc3n2)cc1OC
GI50 [1]: 7.62 µM (inactive) | GI50 [2]: 26.7 µM (inactive) | GI50 [3]: > 100 µM (inactive) | GI50 [4]: > 100 µM (inactive) | GI50 [5]: 54.6 µM (inactive) | GI50 [6]: > 100 µM (inactive) | GI50 [7]: > 100 µM (inactive) | GI50 [8]: 40.7 µM (inactive) | GI50 [9]: 72.3 µM (inactive) | GI50 [10]: 53.8 µM (inactive) | GI50 [11]: > 100 µM | GI50 [12]: > 100 µM (inactive) | GI50 [13]: > 100 µM (inactive) | GI50 [14]: 46.8 µM (inactive) | GI50 [15]: 49.9 µM (inactive) | GI50 [16]: 70.5 µM (inactive) | GI50 [17]: 34.3 µM (inactive) | GI50 [18]: > 100 µM (inactive) | GI50 [19]: 39.3 µM (inactive) | GI50 [20]: 63.1 µM (inactive) | GI50 [21]: > 100 µM (inactive) | GI50 [22]: 33.7 µM (inactive) | GI50 [23]: > 100 µM (inactive) | GI50 [24]: 86.1 µM (inactive) | GI50 [25]: > 100 µM (inactive) | GI50 [26]: 23.9 µM (inactive) | GI50 [27]: 56.2 µM (inactive) | GI50 [28]: 74.1 µM (inactive) | GI50 [29]: 61.1 µM (inactive) | GI50 [30]: > 100 µM (inactive) | GI50 [31]: > 100 µM (inactive) | GI50 [32]: 23.9 µM (inactive) | GI50 [33]: 44.3 µM (inactive) | GI50 [34]: 83.9 µM (inactive) | GI50 [35]: 36.5 µM (inactive) | GI50 [36]: 13.2 µM (inactive) | GI50 [37]: 37.4 µM (inactive) | GI50 [38]: 37.4 µM (inactive) | GI50 [39]: > 100 µM (inactive) | GI50 [40]: > 100 µM (inactive) | GI50 [41]: 29.2 µM (inactive) | GI50 [42]: > 100 µM (inactive) | GI50 [43]: 47 µM (inactive) | GI50 [44]: > 100 µM (inactive) | GI50 [45]: 37.1 µM (inactive) | GI50 [46]: > 100 µM (inactive) | GI50 [47]: 26.9 µM (inactive) | GI50 [48]: > 100 µM (inactive)
